{"source": "patent US20230089267A1", "about": "“Compositions and Methods For Reducing Immune Intolerance and Treating Autoimmune Disorders” (Lapix Therapeutics, Inc., priority 2021, published 2023)", "key": {"[1]": {"test_system": "Th17 (RORγt) cells", "test": "Human PBMCs in Th17 polarizing environment, Foxp3 and RORγt expression", "assay_type": "cell-based", "description": "Total human PBMCs isolated from healthy human volunteers were cultured in vitro in a Thl7 polarizing environment as follows: • Day 0: 2×10^5 cells/well were incubated in a 96 round bottomed-well plate (final volume 200 μl) with (i) anti CD3/CD28 microbead for T-cell activation (1 bead/10 cells), (ii) 10 ng/ml IL-6, 2 ng/ml TGFβ and 10 ng/ml IL-23, and (iii) 10 μg/ml anti-IFNγ and 10 μg/ml anti-IL-4. • Day 4: Each well was split into two wells, and 100 μl of media containing the same cytokine/antibody cocktail used at day 0 was added to each well in the presence of ascending doses of Compound 2 (0, 0.1, 0.3, 1, and 3 ng/ml). • Day 9: Cells were washed and stained for surface staining (CD3, CD4), then viability dye to exclude dead cells. Intranuclear staining was performed after cell fixation and permeabilization for transcription factors Foxp3 and RORγt. Cells were washed and fixed for acquisition by Attune NXT flow cytometer. Data were analyzed by FlowJov10."}, "[2]": {"test_system": "CD4+/Foxp3+ T-cells", "test": "Foxp3 induction in human total PBMCs or sorted T-cells", "assay_type": "cell-based", "conditions": "3 ng/ml; for percentage of CD4+/Foxp3+ T-cells: five days", "description": "2×10^5 Total PBMCs or sorted T-cells (CD3^+) were cultured in 96-well plates in the presence of ascending doses of Compound 2 ranging from 0 to 3 ng/ml for five days. On day 5, cells were washed and stained for CD3 and CD4 for 30 minutes on ice, then cells were washed with PBS and stained with viability dye to exclude dead cells. Stained cells were fixed/permeabilized and further stained for Foxp3. Finally, cells were washed and fixed for acquisition by Attune NXT flow cytometer. Data were analyzed by FlowJov10."}, "[3]": {"test_system": "FoxP3+/CD4+ T-cells (spleen)", "test": "Pharmacodynamics of a single ascending dose in mice, splenic T-cell phenotyping", "assay_type": "in vivo", "conditions": "for percent of FoxP3+/CD4+ T-cells, mean: single dose, spleen five days after dose", "description": "All animal studies were conducted under IACUC number B2020-91 and in compliance with Tufts University/Tufts Medical Center & Human Nutrition Research Center on Aging. Animals were housed 4 per cage and had access to food and water ad libitum. Compound 2 was formulated with 10% DMSO in PBS buffer.\nThis study was designed to evaluate the PD effects of a single dose of Compound 2 in mice. Animals were administered a single oral gavage, as per their group assignment. Five days after the oral dose, animals were sacrificed, and their spleens were collected for T-cell phenotyping. FIG. 2A is a schematic diagram of the study design.\nFor ex vivo analysis, spleens were collected for splenocyte analysis, and prepared into a single-cell suspension for cellular phenotyping by flow cytometry. Cells were stained and gated for CD4. Percent FoxP3+/CD4+ T-cells and percent FoxP3+/NRP1+ were evaluated using flow cytometry. For dose-response analysis, dose versus response was fitted to 4- and 5-parameters, log-logistic models using the “dre” package in “R”. Both EC50 and EC90 were obtained by model fitting."}, "[4]": {"test_system": "MOG35-55-induced murine EAE model", "test": "Induction/maintenance treatment paradigm in MOG35-55-induced murine EAE model (Example 9)", "assay_type": "in vivo, mice", "description": "Compound 2, natalizumab and DMF were prepared as described in Example 8. Table 5 (see Example 4) details the expected clinical symptoms and scoring criteria used in this study.\nThis study was designed to evaluate the therapeutic effects of Compound 2 versus natalizumab in a treatment induction/maintenance paradigm (induction cohort), and Compound 2 versus DMF after natalizumab (maintenance cohort). In the induction cohorts, animals were randomized 2:1:1 natalizumab:Compound 2:control when they reached a score of 2.5, as per FIG. 6A. Animals in the natalizumab cohort were given 100 μg natalizumab/mouse every 3 days for 3 doses before being randomized to the maintenance cohort. Animals randomized into the maintenance cohort after natalizumab received maintenance doses of DMF or Compound 2 (1:1 randomization), as per their group assignment for 14 days. Animals in the Compound 2 induction cohort were dosed with 30 μg Compound 2/mouse SC QD for a maximum of 7 days, or 3 consecutive days of disease score <2.5, at which time they were placed on a maintenance dose of 3 μg/mouse SC QD for 14 days. All animals in all groups were monitored for 14 days after the last dose for disease score and survival.\nDisease control (induction therapy): Disease control was defined as maintaining a clinical score of 2.5 or less after randomization. Animals in the different treatment groups were monitored after the 2:1:1 randomization. Clinical scores were recorded daily for all animals and plotted over time. A score of >2.5 was recorded as an event and analyzed by survival analysis in GraphPad Prism 9. Animals not reaching a clinical score of 2.5 by the end of the induction period (day 7) were assigned a score of zero for the survival analysis.\nSurvival (induction therapy): Death due to disease (clinical score 5) during the treatment induction period was recorded as an event “1”, animals surviving until the end of the induction period, day 7 after randomization, were censored on day 7 for the purposes of survival analysis.\nDisease control (maintenance therapy): At the end of the induction period with natalizumab, animals were randomized 1:1 to the DMF maintenance group or Compound 2 maintenance group as per FIG. 6A. Animals were dosed for 14 days, and clinical scores were monitored daily.\nSurvival (maintenance therapy): Death by disease (clinical score of 5) was recorded as an event “1”, death due to ulceration or ex vivo analysis was recorded as “0”. Animals surviving until the end of the study were recorded as “0” on the last day of the study. Survival analysis was done in GraphPad Prism 9."}, "[5]": {"conditions": "four-parameter dose-response model, single dose per mouse"}, "[6]": {"conditions": "Compound 2 induction followed by Compound 2 maintenance"}}, "data": [{"smiles": "N[C@@H](CNC(=O)Cc1ccc(OCc2cccc3ccccc23)cc1)C(=O)O", "note": "[Compound 2, (S)-2-Amino-3-(2-(4-(naphthalen-1-ylmethoxy)phenyl)acetamido)propanoic acid]", "values": [{"measurement": "decrease in RORγt cells", "setting": "[1]", "result": 80, "unit": "%"}, {"measurement": "percentage of Th17, mean after treatment", "setting": "[1]", "result": 1.1, "unit": "%"}, {"measurement": "percentage of CD4+/Foxp3+ T-cells", "setting": "[2]; isolated T-cells (sorted)", "result": 2.27, "unit": "%"}, {"measurement": "percentage of CD4+/Foxp3+ T-cells", "setting": "[2]; total PBMC", "result": 5.2, "unit": "%"}, {"measurement": "increase of percentage of CD4+/Foxp3+ T-cells", "setting": "[2]; isolated T-cells (sorted)", "result": 606, "unit": "%"}, {"measurement": "increase of percentage of CD4+/Foxp3+ T-cells", "setting": "[2]; total PBMC", "result": 171, "unit": "%"}, {"measurement": "ED50 for FoxP3+/CD4+ T-cells", "setting": "[3]; [5]", "result": 4.88, "unit": "µg"}, {"measurement": "ED90 for FoxP3+/CD4+ T-cells", "setting": "[3]; [5]", "result": 82.1, "unit": "µg"}, {"measurement": "increase of the number of FoxP3+/CD4+ T-cells (T-reg)", "setting": "[3]; from the lowest dose to the highest dose group", "result": 150, "unit": "%"}, {"measurement": "percent of FoxP3+/CD4+ T-cells, mean", "setting": "[3]; highest dose group", "result": 25.4, "unit": "%"}, {"measurement": "percent of FoxP3+/CD4+ T-cells, mean", "setting": "[3]; lowest dose group", "result": 10.7, "unit": "%"}, {"measurement": "clinical score on the last day of dosing", "setting": "[4]; [6]", "result": "2.2 (SD=0.3)"}, {"measurement": "mean score on the first day of maintenance therapy", "setting": "[4]; [6]", "result": "2.3 (SD=0.4)"}, {"measurement": "mice showing clinical score improvement and switched to maintenance before end of induction period", "setting": "[4]; induction period", "result": "at least 4 out of the 10"}, {"measurement": "animals that survived the treatment induction period", "setting": "[4]; induction period, day 7 after randomization", "result": "9/9"}, {"measurement": "last measured score, day 7 after initiation of maintenance", "setting": "[4]; maintenance after natalizumab induction", "result": "2.5 (SD=0)"}, {"measurement": "mortality rate in maintenance cohort", "setting": "[4]; maintenance after natalizumab induction, n=4 in each group", "result": 0, "unit": "%"}, {"measurement": "survival in maintenance cohort", "setting": "[4]; maintenance after natalizumab induction, to end of study", "result": "All animals randomized to Compound 2 maintenance after natalizumab induction survived until the end of the study"}, {"measurement": "mean clinical score by day 7 of induction", "setting": "[4]; randomized at score 2.5, Compound 2 30 μg SC", "result": "2.25 (SD=0.26)"}, {"measurement": "animals that progressed to a clinical score >2.5 during induction", "setting": "[4]; randomized at score 2.5, natalizumab 100 μg/mouse every 3 days, Compound 2 30 μg SC", "result": "0/10"}]}]}
